According to US20260217708A1, “FUSED BENZAZEPINE DERIVATIVES FOR USE IN THE TREATMENT OF CANCER AND EPILEPSY” (UCB BIOPHARMA SRL, priority 2023, published 2026):

Columns and labels:
system Xc^− [1] = molecular target: T1, system Xc^− (Homo sapiens, UniProt Q9UPY5); assay: Cystine-induced glutamate release assay; type: cell-based; design: endogenous in cells; host or cells: H4 cells; details: H4 cells, sodium-free HEPES buffer, 50 μM L-Cystine, 2 hours, Amplex Red glutamate readout; read-out: pIC50 Cystine-induced glutamate release assay (converted)
T1 sequence (Q9UPY5 1-501): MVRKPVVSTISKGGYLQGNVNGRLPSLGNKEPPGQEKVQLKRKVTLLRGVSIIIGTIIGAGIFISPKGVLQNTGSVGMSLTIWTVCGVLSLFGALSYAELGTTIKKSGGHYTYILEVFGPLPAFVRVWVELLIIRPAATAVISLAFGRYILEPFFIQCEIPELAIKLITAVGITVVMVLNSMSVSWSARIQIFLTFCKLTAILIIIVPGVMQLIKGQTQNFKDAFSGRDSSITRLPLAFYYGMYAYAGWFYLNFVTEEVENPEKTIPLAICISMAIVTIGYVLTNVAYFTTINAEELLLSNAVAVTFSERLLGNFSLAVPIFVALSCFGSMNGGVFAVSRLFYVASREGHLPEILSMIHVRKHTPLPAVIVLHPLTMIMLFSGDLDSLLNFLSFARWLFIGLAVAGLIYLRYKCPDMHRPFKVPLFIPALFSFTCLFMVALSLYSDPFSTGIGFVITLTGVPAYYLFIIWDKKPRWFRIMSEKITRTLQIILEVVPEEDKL
T1 sequence (P08195 1-529 partner): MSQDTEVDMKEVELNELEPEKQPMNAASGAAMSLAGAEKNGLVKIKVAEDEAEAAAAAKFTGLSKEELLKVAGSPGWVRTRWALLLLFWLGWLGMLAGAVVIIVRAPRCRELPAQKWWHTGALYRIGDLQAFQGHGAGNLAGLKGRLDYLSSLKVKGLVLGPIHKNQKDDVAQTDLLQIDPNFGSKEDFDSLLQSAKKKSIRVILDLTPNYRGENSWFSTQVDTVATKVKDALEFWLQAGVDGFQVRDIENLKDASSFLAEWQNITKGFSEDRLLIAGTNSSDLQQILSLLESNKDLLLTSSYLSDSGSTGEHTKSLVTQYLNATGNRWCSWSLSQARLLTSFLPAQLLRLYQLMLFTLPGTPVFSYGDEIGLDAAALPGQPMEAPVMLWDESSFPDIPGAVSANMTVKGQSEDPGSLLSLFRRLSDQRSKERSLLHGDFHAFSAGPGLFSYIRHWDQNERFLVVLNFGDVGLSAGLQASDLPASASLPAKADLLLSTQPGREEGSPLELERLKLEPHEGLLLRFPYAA
Outline: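 IC50 (reported as pIC50) normalized to DMSO 1% and Erastin 50 μM controls, from Amplex Red fluorescence of glutamate exported into supernatant. H4 cells were washed into sodium-free buffer to exclude EAAT transport, then given compound with 50 μM L-cystine for 2 h in the incubator.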

system Xc^− [2] = molecular target: T1, system Xc^−; assay: [^14C]L-Cystine uptake assay; type: cell-based; design: endogenous in cells; host or cells: H4 cells; details: H4 cells, sodium-free HEPES buffer, 0.5 μM L-[14C]Cystine and 4.5 μM L-Cystine, 1 hour at 37° C.; read-out: pIC50 [^14C] L-Cystine uptake assay (converted)
Outline: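 Compound effect is given as pIC50, taken between controls of 1% DMSO and 50 μM Erastin. Human H4 cells were pretreated 15 min with compound in sodium-free buffer, then took up 0.5 μM [14C]cystine with 4.5 μM cold cystine for 1 hour at 37° C, read by scintillation proximity counting.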

Row | IC50 (system Xc^− [1]) [nM] | IC50 (system Xc^− [2]) [nM] | Compound
1 | 15.8 to 39.8 | < 15.8 | COc1cc2c(c(=O)n1C)-c1ccccc1C(C)C(=O)N2CC(=O)Nc1ccc(C(F)F)cc1 (stereo not shown) [#362, N-[4-(difluoromethyl)phenyl]-2-(3-methoxy-2,7-dimethyl-1,6-dioxo-7H-pyrido[4,3-d][3]benzazepin-5-yl)acetamide]
2 | 100 to 501 | 39.8 to 100 | COc1ccc2c(c1)-c1c(cc(C)nc1Cl)N(CC(=O)Nc1ccc(C(F)(F)F)cc1)C(=O)C2C (stereo not shown) [#164, 2-(1-chloro-10-methoxy-3,7-dimethyl-6-oxo-7H-pyrido[4,3-d][3]benzazepin-5-yl)-N-[4-(trifluoromethyl)phenyl]acetamide]
3 | < 15.8 | 15.8 to 39.8 | CC1C(=O)N(CC(=O)Nc2ccc(C(F)F)cc2)c2cc(N3CC4(CC4)C3)nc(F)c2-c2cccnc21 (single isomer, unassigned) [#283, 2-[5-(5-azaspiro[2.3]hexan-5-yl)-3-fluoro-10-methyl-9-oxo-4,8,12-triazatricyclo[9.4.0.0^2,7]pentadeca-1(15),2,4,6,11,13-hexaen-8-yl]-N-[4-(difluoromethyl)phenyl]acetamide]
4 | < 15.8 | < 15.8 | CC1C(=O)N(CC(=O)Nc2ccc(C(F)F)cc2)c2cc(N3CC4(C3)CC4(F)F)nc(F)c2-c2cccnc21 (single isomer, unassigned) [#286, 2-[5-(2,2-difluoro-5-azaspiro[2.3]hexan-5-yl)-3-fluoro-10-methyl-9-oxo-4,8,12-triazatricyclo[9.4.0.0^2,7]pentadeca-1(15),2,4,6,11,13-hexaen-8-yl]-N-[4-(difluoromethyl)phenyl]acetamide]
5 | 15.8 to 39.8 | 15.8 to 39.8 | Cc1cc2c(c(F)n1)-c1ncc(F)cc1C(C)C(=O)N2CC(=O)Nc1ccc(C(F)F)cc1 (single isomer, unassigned) [#304, 2-[5,15-difluoro-8,13-dimethyl-9-oxo-3,10,14-triazatricyclo[9.4.0.0^2,7]pentadeca-1(15),2,4,6,11,13-hexaen-10-yl]-N-[4-(difluoromethyl)phenyl]acetamide]
6 | < 15.8 | < 15.8 | Cc1cc2c(c(F)n1)-c1ccccc1C(C)C(=O)N2CC(=O)Nc1ccc(Cl)c(F)c1 (stereo not shown) [#402, N-(4-chloro-3-fluoro-phenyl)-2-(1-fluoro-3,7-dimethyl-6-oxo-7H-pyrido[3,4-a][3]benzazepin-5-yl)acetamide]
7 | 15.8 to 39.8 | 15.8 to 39.8 | CC1C(=O)N(CC(=O)Nc2ccc(C(F)F)cc2)c2cc(N3CC[C@H]3CO)nc(F)c2-c2cccnc21 (stereo partly drawn) [#272, N-[4-(difluoromethyl)phenyl]-2-[3-fluoro-5-[(2S)-2-(hydroxymethyl)azetidin-1-yl]-10-methyl-9-oxo-4,8,12-triazatricyclo[9.4.0.0^2,7]pentadeca-1(15),2,4,6,11,13-hexaen-8-yl]acetamide]
8 | < 15.8 | < 15.8 | Cc1cc2c(c(=O)n1C)-c1ccccc1C(C)C(=O)N2CC(=O)Nc1ccc(Cl)c(F)c1 (single isomer, unassigned) [#219, Enantiomer (7S) or (7R) of N-(4-chloro-3-fluoro-phenyl)-2-[2,3,7-trimethyl-1,6-dioxo-7H-pyrido[4,3-d][3]benzazepin-5-yl]acetamide]
9 | 39.8 to 100 | 15.8 to 39.8 | Cc1cc2c(c(F)n1)-c1cccnc1[C@@H](C)C(=O)N2CC(=O)Nc1ccc(F)cc1 [#233, 2-[(10R)-3-fluoro-5,10-dimethyl-9-oxo-4,8,12-triazatricyclo[9.4.0.0^2,7]pentadeca-1(15),2,4,6,11,13-hexaen-8-yl]-N-(4-fluorophenyl)acetamide]

More lines, now with the values behind:

Row | Compound | IC50 (system Xc^− [1]) [nM] | IC50 (system Xc^− [2]) [nM]
10 | Cc1cc2c(c(F)n1)-c1cccnc1CC(=O)N2CC(=O)Nc1ccc(C(F)(F)F)cc1 [#40, 2-(3-fluoro-5-methyl-9-oxo-4,8,12-triaza-tricyclo[9.4.0.0^2,7]pentadeca-1(11),2(7), 3,5,12,14-hexaen-8-yl)-N-[4-(trifluoro-methyl)phenyl]acet-amide] | 15.8 to 39.8 | < 15.8
11 | Cc1cc2c(c(F)n1)-c1cccc(C#N)c1CC(=O)N2CC(=O)Nc1ccc(C(F)(F)F)cc1 [#88, 2-(8-cyano-1-fluoro-3-methyl-6-oxo-7H-pyrido[4,3-d][3]benzazepin-5-yl)-N-[4-(trifluoromethyl)phenyl]acetamide] | 39.8 to 100 | 39.8 to 100
12 | O=C(CN1C(=O)Cc2ccncc2-c2cnc(Cl)cc21)Nc1ccc(C(F)(F)F)cc1 [#11, 2-(5-chloro-9-oxo-4,8,14-triazatricyclo[9.4.0.0^2,7]pentadeca-1(11),2(7),3,5,12,14-hexaen-8-yl)-N-[4-(trifluoromethyl)phenyl]acetamide] | 100 to 501 | 100 to 501
13 | Cc1cc2c(cn1)-c1cccnc1C(C)C(=O)N2CC(=O)Nc1ccc(F)c(Cl)c1 (single isomer, unassigned) [#253, N-(3-chloro-4-fluoro-phenyl)-2-(5,10-dimethyl-9-oxo-4,8,12-triazatricyclo[9.4.0.0^2,7]pentadeca-1(11),2(7).3,5,12,14-hexaen-8-yl)acetamide] | 39.8 to 100 | 39.8 to 100
14 | O=C(CN1C(=O)Cc2cccnc2-c2cnc(Cl)cc21)Nc1ccc(C(F)(F)F)cc1 [#7, 2-(13-chloro-9-oxo-3,10,14-triazatricyclo[9.4.0.0^2,7]pentadeca-1(11),2(7),3,5,12,14-hexaen-10-yl)-N-[4-(trifluoromethyl)phenyl]acetamide] | 100 to 501 | 39.8 to 100
15 | Cc1cc2c(c(F)n1)-c1cccnc1C(C)C(=O)N2CC(=O)Nc1ccc(OC(F)F)c(F)c1 (stereo not shown) [#136, N-[4-(difluoromethoxy)-3-fluoro-phenyl]-2-(3-fluoro-5,10-dimethyl-9-oxo-4,8,12-triazatricyclo[9.4.0.0^2,7]pentadeca-1(11),2(7),3,5,12,14-hexaen-8-yl)acetamide] | 100 to 501 | 15.8 to 39.8
16 | COc1nc(C)cc2c1-c1cncnc1C(C)C(=O)N2CC(=O)Nc1ccc(C(F)(F)F)cc1 (stereo not shown) [#157, 2-(15-methoxy-8,13-dimethyl-9-oxo-4,6,10,14-tetrazatricyclo[9.4.0.0^2,7]pentadeca-1(11),2(7),3,5,12,14-hexaen-10-yl)-N-[4-(trifluoromethyl)phenyl]acetamide] | 15.8 to 39.8 | < 15.8
17 | Cc1cc2c(nc1C)-c1ccccc1CC(=O)N2CC(=O)Nc1ccc(C(F)(F)F)cc1 [#15, 2-(2,3-dimethyl-6-oxo-7H-pyrido[3,2-d][3]benzazepin-5-yl)-N-[4-(trifluoro-methyl)phenyl] acetamide] | 100 to 501 | 15.8 to 39.8
18 | Cc1cc2c(c(F)n1)-c1cncnc1C(C)C(=O)N2CC(=O)Nc1ccc(Cl)c(F)c1 (single isomer, unassigned) [#217, Enantiomer (8S) or (8R) of N-(4-chloro-3-fluoro-phenyl)-2-[15-fluoro-8,13-dimethyl-9-oxo-4,6,10,14-tetrazatricyclo[9.4.0.0^2,7]pentadeca-1(15),2,4,6,11,13-hexaen-10-yl]acetamide] | < 15.8 | < 15.8
19 | Cc1cc2c(c(F)n1)-c1ccc(Cl)cc1CC(=O)N2CC(=O)Nc1ccc(C(F)(F)F)cc1 [#85, 2-(9-chloro-1-fluoro-3-methyl-6-oxo-7H-pyrido[4,3-d][3]benzazepin-5-yl)-N-[4-(trifluoromethyl)phenyl]acetamide] | 39.8 to 100 | 100 to 501
20 | Cc1cc2c(c(Cl)n1)-c1cccnc1C(C)C(=O)N2CC(=O)Nc1ccc(Br)c(F)c1 (single isomer, unassigned) [#224, Enantiomer (10S) or (10R) of N-(4-bromo-3-fluoro-phenyl)-2-[3-chloro-5,10-dimethyl-9-oxo-4,8,12-triazatricyclo[9.4.0.0^2,7]pentadeca-1(15),2,4,6,11,13-hexaen-8-yl]acetamide] | 15.8 to 39.8 | < 15.8
